Tests used:
[1] = tested on: HEK293 cells; assay: Peptide stability study in HEK293 cells, LCMS (Example 4); type: in vitro ADME; details: peptide 9 μM, Opti-MEM, 60 min
Procedure: SEQ ID NO:2 was prepared as a C-terminal amidated analogue of SEQ ID NO:1. The stability of SEQ ID NO:1 and SEQ ID NO:2 was assessed in HEK293 and EA.hy926 cells grown in culture and their break down was monitored by LCMS over 60 min using the following procedure.
HEK293 (passage 24) or Ea.hy926 (passage 37) were seeded into tissue-culture-grade 96-well plates at a density of 20,000 cells/well. After 24 hr, cells were washed with PBS and replaced with Opti-MEM reduced serum media containing SEQ ID NO:1 or SEQ ID NO:2 (9 μM). Aliquots of equal volume were taken at T=0 and 60 min. SEQ ID NO:2 was added to control wells having media (no cells) only. Samples were immediately acidified in 0.1% TFA, snap frozen in dry ice and stored in −80° C. until analysed by LCMS.
Samples were analyzed by LC-MS/MS on a Shimadzu Nexera uHPLC (Japan) coupled to a Triple Tof 5600 mass spectrometer (ABSCIEX, Canada) equipped with a duo electrospray ion source. One μL of each extract was injected onto a 2.1 mm×100 mm Zorbax C18 1.8 um column (Agilent) at 200 μL/min. […] SEQ ID NO:1 and SEQ ID NO:2 were quantified using the […] doubly charged molecular ion from m/z 510.270 to 510.325. The data was acquired using Analyst TF 1.6 and quantification was carried out using MultiQuant 2.1.1 software (ABSCIEX, Canada).

[2] = target: T1, ECE1 (Homo sapiens, UniProt P42892); assay: QFS assay of Aβ-degrading enzymes: ECE1 (Example 6); type: biochemical
T1 construct: purchased R & D systems 1784-ZN-010
T1 sequence (P42892 1-770): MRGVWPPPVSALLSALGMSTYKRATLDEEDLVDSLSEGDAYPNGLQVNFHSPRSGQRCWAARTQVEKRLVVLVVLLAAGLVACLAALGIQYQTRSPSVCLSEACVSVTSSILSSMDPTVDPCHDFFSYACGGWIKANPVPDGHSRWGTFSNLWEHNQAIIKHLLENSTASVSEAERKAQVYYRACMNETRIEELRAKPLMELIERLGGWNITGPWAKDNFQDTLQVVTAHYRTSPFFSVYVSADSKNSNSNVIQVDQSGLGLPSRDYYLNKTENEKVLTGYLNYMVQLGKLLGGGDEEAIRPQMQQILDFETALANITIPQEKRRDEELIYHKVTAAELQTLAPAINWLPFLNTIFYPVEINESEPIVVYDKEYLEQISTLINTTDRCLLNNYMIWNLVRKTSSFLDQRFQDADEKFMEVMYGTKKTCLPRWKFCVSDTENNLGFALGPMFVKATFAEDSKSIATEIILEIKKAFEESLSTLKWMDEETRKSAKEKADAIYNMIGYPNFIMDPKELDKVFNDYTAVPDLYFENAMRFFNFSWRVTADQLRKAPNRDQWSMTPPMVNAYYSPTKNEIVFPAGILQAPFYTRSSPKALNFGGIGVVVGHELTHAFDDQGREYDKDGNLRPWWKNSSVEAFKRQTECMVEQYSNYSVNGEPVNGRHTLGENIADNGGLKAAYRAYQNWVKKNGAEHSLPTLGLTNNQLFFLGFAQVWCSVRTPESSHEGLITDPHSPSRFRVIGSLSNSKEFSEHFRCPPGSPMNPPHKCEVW
Procedure: Plate reader-based enzyme assays were performed using a quenched fluorescent substrate (QFS) in a 96-well format using a SpectraMAX M4 Microplate reader (Molecular Devices). The increase in fluorescence following addition of QFS (40 μM) was taken as evidence of enzyme activity. Fluorescence was monitored over 2 h at 37° C. using κEx=320 nm and λEm=405 nm. Assays were conducted in black 96-well plates. Specific enzyme activity was expressed as a rate of substrate cleavage calculated using a standard curve of 7-methoxy-coumarin-4-acetic acid.
In all plate reader-based enzyme assays using QFS, the reaction rate (μmol of substrate cleaved/min) was calculated using linear regression analysis (GraphPad Prism software version 8.01). The reaction rates calculated were used to generate the enzyme kinetic parameters Vmax and Km through non-linear regression analysis (GraphPad Prism software, version 8.01; Michaelis-Menten equation). Where indicated, enzyme activity in the presence of peptide was expressed as a % of the enzyme alone. Data were expressed as mean±SEM and statistical significance was determined using t-tests or one-way ANOVAs followed by Tukey's post-hoc test. P<0.05 was considered as statistically significant. […]
SEQ ID NO:2 was assessed in a QFS assay against enzymes NEP, ECE1, ECE2, ACE1, ACE2, IDE and MMP-2 using the method in Example 2 and the following procedure. […]

## H-SLFELGKMIL-NH2 [SEQ ID NO:2, H2N-SLFELGKMIL-NH2]
[1]
  amount remaining in the medium of HEK293 cells: 54%±4%
[2]; peptide 2 μM (FIG. 2c)
  ECE1 activity compared with respective enzyme alone: did not increase
[2]; peptide 0.9-26 μM
  ECE1 activity, concentration dependence: did not affect
